Laboratory results from BindingDB's records for patent WO2022098807 (Merck Sharp &Amp, 2022).

The compounds below were run against Mitogen-activated protein kinase kinase kinase kinase 1 (Homo sapiens, UniProt Q92918) (assay: HPK1-SLP76 TR-FRET ASSAY).
Mitogen-activated protein kinase kinase kinase kinase 1, sequence (Q92918 whole entry): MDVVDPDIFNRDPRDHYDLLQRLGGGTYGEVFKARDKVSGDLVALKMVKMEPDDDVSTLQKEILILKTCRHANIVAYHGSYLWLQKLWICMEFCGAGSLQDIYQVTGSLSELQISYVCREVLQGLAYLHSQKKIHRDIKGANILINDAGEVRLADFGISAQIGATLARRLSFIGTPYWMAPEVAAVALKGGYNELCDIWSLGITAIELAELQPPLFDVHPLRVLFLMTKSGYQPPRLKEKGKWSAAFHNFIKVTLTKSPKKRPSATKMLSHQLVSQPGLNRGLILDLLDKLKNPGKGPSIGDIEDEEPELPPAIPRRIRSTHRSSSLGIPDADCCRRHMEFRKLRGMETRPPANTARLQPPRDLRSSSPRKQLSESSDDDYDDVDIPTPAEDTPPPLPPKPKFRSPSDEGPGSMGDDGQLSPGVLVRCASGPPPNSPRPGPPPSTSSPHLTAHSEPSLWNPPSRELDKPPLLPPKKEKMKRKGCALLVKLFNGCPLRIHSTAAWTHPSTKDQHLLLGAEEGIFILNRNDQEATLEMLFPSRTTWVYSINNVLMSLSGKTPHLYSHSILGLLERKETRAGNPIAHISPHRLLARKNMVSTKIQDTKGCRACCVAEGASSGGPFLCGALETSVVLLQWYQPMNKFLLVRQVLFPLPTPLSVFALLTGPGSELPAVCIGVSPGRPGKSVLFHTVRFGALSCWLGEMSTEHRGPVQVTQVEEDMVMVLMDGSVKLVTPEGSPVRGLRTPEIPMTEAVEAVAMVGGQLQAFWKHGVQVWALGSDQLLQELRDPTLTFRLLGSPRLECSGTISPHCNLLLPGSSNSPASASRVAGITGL

Question: For Cc1c(-c2ccc3cnc(Nc4cnn(C5CC6(C5)CC(C5(C)COC5)C6)c4)nc3c2)cnc2c1NCCO2 (stereo not given) [WO2022098807, Example 1-2], which IC50 is on record?
Answer: The IC50 was 0.22 nM.

Question: Which IC50 does the source give for Cc1c(-c2ccc3cnc(Nc4cc5n(n4)CCN(C(C)(C)O)C(=O)C5)nc3c2)cnc2c1NCCO2 [WO2022098807, Example 1-8] here?
Answer: Its IC50 is 0.67 nM.

Question: Which IC50 does the source give for Cc1c(-c2cc3nc(Nc4cnn(C5(C)CC5)c4)ncc3c(N)c2F)cnc2c1NCCO2 [WO2022098807, Example 2-8] here?
Answer: Its IC50 is 0.09 nM.

Question: With Cc1c(-c2cc3nc(Nc4cnn(C5CCNCC5)c4)ncc3c(N)c2F)cnc2c1NCCO2 [WO2022098807, Example 2-11] as the compound, how does the IC50 read?
Answer: The IC50 was 0.07 nM.

Question: For Cc1c(-c2cc3nc(Nc4cnn([C@@H]5CCN(C)C5=O)c4)ncc3c(N)c2F)cnc2c1NCCO2 [WO2022098807, Example 2-19], which IC50 is on record?
Answer: The IC50 was 0.15 nM.

Question: Which IC50 does the source give for Cc1c(-c2cc3nc(Nc4cc5n(n4)CCN(C(C)C)C(=O)C5)ncc3c(N)c2F)cnc2c1NCCO2 [WO2022098807, Example 2-20] here?
Answer: The IC50 was 0.06 nM.

Question: How did the IC50 turn out when Cc1c(-c2cc3nc(Nc4cnn([C@H]5CCN(C)C5=O)c4)ncc3c(N)c2F)cnc2c1NCCO2 [WO2022098807, Example 2-21] was run?
Answer: Its IC50 is 0.35 nM.

Question: With CCn1cc(Nc2ncc3c(N)c(F)c(-c4cnc5c(c4C)NCCO5)cc3n2)cn1 [WO2022098807, Example 2-22] as the compound, how does the IC50 read?
Answer: Its IC50 is 0.08 nM.

Question: For CNC(=O)C12CC(n3cc(Nc4ncc5c(N)c(F)c(-c6cnc7c(c6C)NCCO7)cc5n4)cn3)(C1)C2 [WO2022098807, Example 2-28], which IC50 is on record?
Answer: The IC50 was 0.09 nM.

Question: Which IC50 does the source give for Cc1c(-c2cc3nc(Nc4cnn(C)c4C)ncc3c(N)c2F)cnc2c1NCCO2 [WO2022098807, Example 2-30] here?
Answer: The IC50 was 0.05 nM.

Question: With Cc1c(-c2cc3nc(Nc4cnn(CC(F)F)c4)ncc3c(N)c2F)cnc2c1NCCO2 [WO2022098807, Example 2-32] as the compound, how does the IC50 read?
Answer: The IC50 was 0.05 nM.

Question: Cc1nn(C)cc1Nc1ncc2c(N)c(F)c(-c3cnc4c(c3C)NCCO4)cc2n1 [WO2022098807, Example 2-34] was tested. Which IC50 did it give?
Answer: The IC50 was 0.06 nM.

Question: For Cc1c(-c2cc3nc(Nc4cnn5c4CCC5)ncc3c(N)c2F)cnc2c1NCCO2 [WO2022098807, Example 2-35], which IC50 is on record?
Answer: The IC50 was 0.05 nM.

Question: How did the IC50 turn out when Cc1cnsc1Nc1ncc2c(N)c(F)c(-c3cnc4c(c3C)NCCO4)cc2n1 [WO2022098807, Example 2-37] was run?
Answer: The IC50 was 0.07 nM.

Question: How did the IC50 turn out when Cc1c(-c2cc3nc(Nc4cnn(C5COC5)c4)ncc3c(N)c2F)cnc2c1NCCO2 [WO2022098807, Example 2-39] was run?
Answer: The IC50 was 0.05 nM.

Question: With Cc1c(-c2c(F)c(N)c3cnc(Nc4cnn(C5CCN(C)CC5)c4)nc3c2Cl)cnc2c1NCCO2 [WO2022098807, Example 2-44] as the compound, how does the IC50 read?
Answer: The IC50 was 0.05 nM.

Question: Cc1c(-c2c(F)c(N)c3cnc(Nc4cnn(C5CC5)c4C)nc3c2Cl)cnc2c1NCCO2 [WO2022098807, Example 2-45] was tested. Which IC50 did it give?
Answer: The IC50 was 0.18 nM.

Question: With Cc1c(-c2cc3nc(Nc4cnn(C56CC(C(C)(C)O)(C5)C6)c4)ncc3c(N)c2F)cnc2c1NCCO2 [WO2022098807, Example 2-46] as the compound, how does the IC50 read?
Answer: The IC50 was 0.05 nM.

Question: With Cc1c(-c2c(F)c(N)c3cnc(Nc4cnn([C@H]5CCN(C)C5)c4)nc3c2Cl)cnc2c1NCCO2 [WO2022098807, Example 2-47] as the compound, how does the IC50 read?
Answer: The IC50 was 0.18 nM.

Question: Cc1c(-c2c(F)c(N)c3cnc(Nc4cnn([C@@H]5CCN(C)C5)c4)nc3c2Cl)cnc2c1NCCO2 [WO2022098807, Example 2-48] was tested. Which IC50 did it give?
Answer: The IC50 was 0.17 nM.
